Data from ChEMBL document CHEMBL5226353, “Cytotoxic Activities of 9,10-seco-Cycloartane-Type Triterpenoids from the Chinese Liverwort Lepidozia reptans” (J Nat Prod, 2021).
Counter-ions that a name gives are not always drawn.

Tests used:
[1] = system: NCI-H446; assay: Cytotoxicity against human NCI-H446 cells assessed as inhibition of cell growth incubated for 48 hrs by MTT assay; type: functional, cell-based; conditions: NCI-H446, 48 h
[2] = system: A549; assay: Cytotoxicity against human A549 cells assessed as inhibition of cell growth incubated for 48 hrs by MTT assay; type: functional, cell-based; conditions: A549, 48 h
[3] = system: NCI-H3255; assay: Cytotoxicity against human NCI-H3255 cells assessed as inhibition of cell growth incubated for 48 hrs by MTT assay; type: functional, cell-based; conditions: NCI-H3255, 48 h
[4] = system: PC-3; assay: Cytotoxicity against human PC-3 cells assessed as inhibition of cell growth incubated for 48 hrs by MTT assay; type: functional, cell-based; conditions: PC-3, 48 h
[5] = system: PC-3; assay: Induction of apoptosis in human PC-3 cells assessed as late apoptotic cells at 2.5 uM measured after 24 hrs by annexinV-FITC staining based flow cytometric analysis (reference value: 1.87 %); type: functional
[6] = system: PC-3; assay: Induction of apoptosis in human PC-3 cells assessed as early apoptotic cells up to 10 uM measured at 8 hrs by annexinV-FITC staining based flow cytometric analysis (reference value: 0.55 %); type: functional
[7] = system: PC-3; assay: Induction of apoptosis in human PC-3 cells assessed as viable cells up to 10 uM measured at 4 hrs by annexinV-FITC staining based flow cytometric analysis (reference value: 91.1 %); type: functional
[8] = system: PC-3; assay: Induction of apoptosis in human PC-3 cells assessed as early apoptotic cells at 10 uM measured after 24 hrs by annexinV-FITC staining based flow cytometric analysis (reference value: 0.12 %); type: functional
[9] = system: PC-3; assay: Induction of apoptosis in human PC-3 cells assessed as necrotic cells up to 10 uM measured at 24 hrs by annexinV-FITC staining based flow cytometric analysis (reference value: 3.69 %); type: functional
[10] = system: PC-3; assay: Induction of apoptosis in human PC-3 cells assessed as early apoptotic cells up to 10 uM measured at 12 hrs by annexinV-FITC staining based flow cytometric analysis (reference value: 0.55 %); type: functional
[11] = system: PC-3; assay: Induction of apoptosis in human PC-3 cells assessed as necrotic cells at 2.5 uM measured after 24 hrs by annexinV-FITC staining based flow cytometric analysis (reference value: 5.09 %); type: functional
[12] = system: PC-3; assay: Induction of apoptosis in human PC-3 cells assessed as early apoptotic cells up to 10 uM measured at 24 hrs by annexinV-FITC staining based flow cytometric analysis (reference value: 0.55 %); type: functional
[13] = system: PC-3; assay: Induction of apoptosis in human PC-3 cells assessed as late apoptotic cells at 5 uM measured after 24 hrs by annexinV-FITC staining based flow cytometric analysis (reference value: 1.87 %); type: functional
[14] = system: PC-3; assay: Induction of apoptosis in human PC-3 cells assessed as early apoptotic cells up to 10 uM measured at 2 hrs by annexinV-FITC staining based flow cytometric analysis (reference value: 0.55 %); type: functional
[15] = system: PC-3; assay: Induction of apoptosis in human PC-3 cells assessed as late apoptotic cells at 10 uM measured after 24 hrs by annexinV-FITC staining based flow cytometric analysis (reference value: 1.87 %); type: functional
[16] = system: PC-3; assay: Induction of apoptosis in human PC-3 cells assessed as viable cells up to 10 uM measured att 24 hrs by annexinV-FITC staining based flow cytometric analysis (reference value: 91.1 %); type: functional
[17] = system: PC-3; assay: Induction of apoptosis in human PC-3 cells assessed as late apoptotic cells up to 10 uM measured at 4 hrs by annexinV-FITC staining based flow cytometric analysis (reference value: 4.64 %); type: functional
[18] = system: PC-3; assay: Induction of apoptosis in human PC-3 cells assessed as late apoptotic cells up to 10 uM measured at 2 hrs by annexinV-FITC staining based flow cytometric analysis (reference value: 4.64 %); type: functional
[19] = system: PC-3; assay: Induction of apoptosis in human PC-3 cells assessed as late apoptotic cells up to 10 uM measured at 24 hrs by annexinV-FITC staining based flow cytometric analysis (reference value: 4.64 %); type: functional
[20] = system: PC-3; assay: Induction of apoptosis in human PC-3 cells assessed as necrotic cells up to 10 uM measured at 12 hrs by annexinV-FITC staining based flow cytometric analysis (reference value: 3.69 %); type: functional
[21] = system: PC-3; assay: Induction of apoptosis in human PC-3 cells assessed as necrotic cells up to 10 uM measured at 2 hrs by annexinV-FITC staining based flow cytometric analysis (reference value: 3.69 %); type: functional
[22] = system: PC-3; assay: Induction of apoptosis in human PC-3 cells assessed as necrotic cells at 10 uM measured after 24 hrs by annexinV-FITC staining based flow cytometric analysis (reference value: 5.09 %); type: functional
[23] = system: PC-3; assay: Induction of apoptosis in human PC-3 cells assessed as necrotic cells up to 10 uM measured at 8 hrs by annexinV-FITC staining based flow cytometric analysis (reference value: 3.69 %); type: functional
[24] = system: PC-3; assay: Induction of apoptosis in human PC-3 cells assessed as viable cells at 10 uM measured after 24 hrs by annexinV-FITC staining based flow cytometric analysis (reference value: 92.9 %); type: functional; conditions: read-out: Activity
[25] = system: PC-3; assay: Induction of apoptosis in human PC-3 cells assessed as viable cells up to 10 uM measured at 8 hrs by annexinV-FITC staining based flow cytometric analysis (reference value: 91.1 %); type: functional
[26] = system: PC-3; assay: Induction of mitochondrial membrane potential loss in human PC-3 cells at 2 uM measured after 24 hrs by JC-1 dye-based flow cytometric analysis (reference value: 100 %); type: functional
[27] = system: PC-3; assay: Induction of apoptosis in human PC-3 cells assessed as late apoptotic cells up to 10 uM measured at 8 hrs by annexinV-FITC staining based flow cytometric analysis (reference value: 4.64 %); type: functional
[28] = system: PC-3; assay: Induction of apoptosis in human PC-3 cells assessed as necrotic cells up to 10 uM measured at 4 hrs by annexinV-FITC staining based flow cytometric analysis (reference value: 3.69 %); type: functional
[29] = system: PC-3; assay: Induction of apoptosis in human PC-3 cells assessed as early apoptotic cells at 2.5 uM measured after 24 hrs by annexinV-FITC staining based flow cytometric analysis (reference value: 0.12 %); type: functional
[30] = system: PC-3; assay: Induction of mitochondrial membrane potential loss in human PC-3 cells at 4 uM measured after 24 hrs by JC-1 dye-based flow cytometric analysis (reference value: 100 %); type: functional
[31] = system: PC-3; assay: Induction of apoptosis in human PC-3 cells assessed as early apoptotic cells at 5 uM measured after 24 hrs by annexinV-FITC staining based flow cytometric analysis (reference value: 0.12 %); type: functional
[32] = system: PC-3; assay: Induction of apoptosis in human PC-3 cells assessed as viable cells up to 10 uM measured at 2 hrs by annexinV-FITC staining based flow cytometric analysis (reference value: 91.1 %); type: functional
[33] = system: PC-3; assay: Induction of mitochondrial membrane potential loss in human PC-3 cells at 6 uM measured after 24 hrs by JC-1 dye-based flow cytometric analysis (reference value: 100 %); type: functional
[34] = system: PC-3; assay: Induction of apoptosis in human PC-3 cells assessed as necrotic cells at 5 uM measured after 24 hrs by annexinV-FITC staining based flow cytometric analysis (reference value: 5.09 %); type: functional
[35] = system: PC-3; assay: Induction of apoptosis in human PC-3 cells assessed as early apoptotic cells up to 10 uM measured at 4 hrs by annexinV-FITC staining based flow cytometric analysis (reference value: 0.55 %); type: functional
[36] = system: PC-3; assay: Induction of apoptosis in human PC-3 cells assessed as viable cells up to 10 uM measured att 12 hrs by annexinV-FITC staining based flow cytometric analysis (reference value: 91.1 %); type: functional
[37] = system: PC-3; assay: Induction of apoptosis in human PC-3 cells assessed as viable cells at 2.5 uM measured after 24 hrs by annexinV-FITC staining based flow cytometric analysis (reference value: 92.9 %); type: functional; conditions: read-out: Activity
[38] = system: PC-3; assay: Induction of apoptosis in human PC-3 cells assessed as increase in ROS levels at measured after 24 hrs by DCFH-DA staining based flow cytometry assay; type: functional, cell-based; conditions: dose <= 10.0 µM
[39] = system: PC-3; assay: Induction of apoptosis in human PC-3 cells assessed as late apoptotic cells up to 10 uM measured at 12 hrs by annexinV-FITC staining based flow cytometric analysis (reference value: 4.64 %); type: functional
[40] = system: PC-3; assay: Induction of apoptosis in human PC-3 cells assessed as viable cells at 5 uM measured after 24 hrs by annexinV-FITC staining based flow cytometric analysis (reference value: 92.9 %); type: functional; conditions: read-out: Activity

C=C(C[C@@H](C)[C@H]1[C@H](O)C[C@@]2(C)[C@@H]3CC[C@H]4C(C)(C)[C@@H](O)CC[C@]4(O)CC3=CC[C@]12C)C(C)C
IC50 [1]: 9.6 µM
IC50 [2]: 8.8 µM
IC50 [3]: > 10 µM
IC50 [4]: 8.6 µM

COc1cccc2c1C(=O)c1c(O)c3c(c(O)c1C2=O)C[C@@](O)(C(=O)CO)C[C@@H]3O[C@H]1C[C@H](N)[C@H](O)[C@H](C)O1 [DOXORUBICIN HYDROCHLORIDE]
IC50 [1]: 1.7 µM
IC50 [2]: 1.2 µM
IC50 [3]: 1.5 µM
IC50 [4]: 0.4 µM

CC(C)=CCC[C@@H](C)[C@H]1[C@H](O)C[C@@]2(C)[C@@H]3CC[C@H]4C(C)(C)[C@@H](O)CC[C@]4(O)CC3=CC[C@]12C
IC50 [1]: 7.5 µM
IC50 [2]: 7 µM
IC50 [3]: 9.4 µM
IC50 [4]: 6.5 µM

C=C(C)C(=O)CC[C@@H](C)[C@H]1[C@H](O)C[C@@]2(C)[C@@H]3CC[C@H]4C(C)(C)[C@@H](O)CC[C@]4(O)CC3=CC[C@]12C
Activity [5]: 2.06%
Activity [6]: 0.76%
Activity [7]: 87.1%
Activity [8]: 0.78%
Activity [9]: 4.25%
Activity [10]: 2.63%
Activity [11]: 4.44%
Activity [12]: 3.3%
Activity [13]: 3.81%
Activity [14]: 0.33%
IC50 [1]: 5 µM
Activity [15]: 40.3%
Activity [16]: 83%
Activity [17]: 5.8%
Activity [18]: 4.82%
Activity [19]: 9.45%
Activity [20]: 3.48%
Activity [21]: 6.41%
Activity [22]: 12.9%
Activity [23]: 4.5%
viability at 10 µM [24]: 45%
Activity [25]: 88.8%
Activity [26]: 85.2%
IC50 [2]: 4.4 µM
Activity [27]: 5.96%
Activity [28]: 6.67%
Activity [29]: 0.29%
Activity [30]: 71.5%
Activity [31]: 1.64%
Activity [32]: 88.4%
Activity [33]: 16.8%
IC50 [3]: 5.7 µM
Activity [34]: 2.68%
Activity [35]: 0.39%
IC50 [4]: 4.2 µM
Activity [36]: 86.5%
viability at 2.5 µM [37]: 93.2%
Activity [38]: Dose-Dependent Effect
Activity [39]: 7.37%
viability at 5 µM [40]: 91.9%
